Measurements taken from US11992535B2, “Compounds and probes for imaging huntingtin protein” (CHDI Foundation, Inc., priority 2019, dated 2024).
Where two headings read alike, the source gives them in different places.

Molecular target: aggregated MBP-HTT(1-89)Q46-His(6×) (Exonl-Q46) protein (Q46 protein aggregates) (Homo sapiens (Human), UniProt P42858, INS38QQQQQQQQQQQQQQQQQQQQQQQQQ)
Experiment: Q46 Radioligand Binding Assay
Details: read-out: Q46_RBA EC50_
Protocol: Q46 Radioligand Binding Assay
For radioligand binding assays (RBA) MBP-HTT(1-89)Q46-His(6×) (“Exonl-Q46”) protein was generated based on a previous publication (Scherzinger et al. Cell, Vol. 90, 549-558, Aug. 8, 1997). For experiments 30 μM MBP-Exonl-Q46 was incubated with 150 μg/mL thrombin in assay buffer (150 mM NaCl, 50 mM Tris pH 8.0) and 2 mM CaCl2 for 16 hours at 37° C. Aggregated Exonl-Q46 was pelleted by centrifugation for 5 minutes at 13,000 rpm in a bench top centrifuge and re-dissolved in the same volume of assay buffer. Test compounds were prepared by titration in DMSO at 11 concentrations from 63 μM to 2 nM. For the RBA, Q46 protein aggregates and test compounds were pre-incubated in assay buffer for 20 minutes at room temperature, in 100 μL/well in a 96-well plate (pp, round bottom). Then, ligand was added in 50 μL/well and incubated for 60 minutes at 37° C. Final assay concentrations were 1 μM to 30 μM test compound, 1 μM Exonl-Q46 protein (equivalent monomer concentration) and 0.3 nM ligand [^3H3-methyl]-5-((5-methoxypyridin-2-yl)methoxy)-2-(pyrazin-2-yl)benzo[d]oxazole. Samples were transferred onto GF/B filter plates and washed 2× with 200 μL PBS using a Filtermate Harvester. After drying filter plates for 1 hour at 55° C., the back of the plates were sealed with foil and 30 μL/well scintillation fluid (Packard MicroScint 40) added, incubated for 15 minutes in the dark and counted in a MicroBeta reader. For analysis, replicate data from independent assay plates were normalized towards 0% and 100% inhibition using control wells of vehicle (0% inhibition) and 1 μM unlabelled [^3H3-methyl]-5-((5-methoxypyridin-2-yl)methoxy)-2-(pyrazin-2-yl)benzo[d]oxazole (100% inhibition). IC50 values were determined with a sigmoidal inhibition model with four variables (top, bottom, slope, IC50) in a global fit using the normalized replicate data.

[1] = displacement of 0.3 nM [3H3-methyl]-5-((5-methoxypyridin-2-yl)methoxy)-2-(pyrazin-2-yl)benzo[d]oxazole from 1 μM Exonl-Q46 aggregates, method calls the values IC50
[2] = same radioligand displacement on Exonl-Q46 aggregates

Sequence of aggregated MBP-HTT(1-89)Q46-His(6×) (Exonl-Q46) protein (Q46 protein aggregates) (P42858 other isoform, or with tags, fused parts or gaps, stated change not applied): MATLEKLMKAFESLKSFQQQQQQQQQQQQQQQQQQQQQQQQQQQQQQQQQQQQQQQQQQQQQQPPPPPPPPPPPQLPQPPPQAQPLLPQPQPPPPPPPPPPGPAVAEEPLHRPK

Row | Compound | EC50 [1] | EC50 [2]
1 | COc1ccc(C(=O)Nc2ccc3c(c2)CN(c2ccc(OC)nc2)CC3)nc1 [Example 11, 5-Methoxy-N-[2-(6-methoxypyridin-3-yl)-1,2,3,4-tetrahydroisoquinolin-7-yl]pyridine-2-carboxamide] | 1.3 nM | < 100 nM
2 | COc1ccc(C(=O)Nc2ccc3c(c2)CN(C(=O)c2ccc(OC)nc2)CC3)nc1 [Example 12] | 1.72 nM | < 100 nM
3 | COc1ccc(C(=O)N(C)c2ccc3c(c2)CN(C(=O)c2ccc(OC)nc2)CC3)nc1 [Example 13] | 1000 nM | > 500 nM
4 | COc1ccc(COc2ccc3c(c2)CN(C(=O)c2cn(C)c(=O)cn2)CC3)nc1 [Example 15, 5-{7-[(5-Methoxypyridin-2-yl)methoxy]-1,2,3,4-tetrahydroisoquinoline-2-carbonyl}-1-methyl-1,2-dihydropyrazin-2-one] | 56.8 nM | < 100 nM
5 | COc1ccc(COc2cc3c(cn2)CCN(C(=O)c2ccc(OC)nc2)C3)nc1 [Example 16, 7-[(5-Methoxypyridin-2-yl)methoxy]-2-(6-methoxypyridine-3-carbonyl)-1,2,3,4-tetrahydro-2,6-naphthyridine] | 39.5 nM | < 100 nM
6 | COc1ccc(C(=O)N(C)c2ccc3c(c2)CN(c2ccc(OC)nc2)CC3)nc1 [Example 17, 5-Methoxy-N-[2-(6-methoxypyridin-3-yl)-1,2,3,4-tetrahydroisoquinolin-7-yl]-N-methylpyridine-2-carboxamide] | 333 nM | 100 to 500 nM
7 | COc1ccc(COc2ccc3c(c2)CN(S(=O)(=O)c2ccc(OC)nc2)CC3)nc1 [Example 18, 7-[(5-Methoxypyridin-2-yl)methoxy]-2-[(6-methoxypyridin-3-yl)sulfonyl]-1,2,3,4-tetrahydroisoquinoline] | 390 nM | 100 to 500 nM
8 | COc1ccc(OCCOc2ccc3c(c2)CN(C(=O)c2ccc(OC)nc2)CC3)nc1 [Example 19, 7-{2-[(5-Methoxypyridin-2-yl)oxy]ethoxy}-2-(6-methoxypyridine-3-carbonyl)-1,2,3,4-tetrahydroisoquinoline] | 37.4 nM | < 100 nM
9 | COc1ccc(OCc2cn3c(n2)CN(C(=O)c2ccc(OC)nc2)CC3)nc1 [Example 20, 5-Methoxy-2-{[7-(6-methoxypyridine-3-carbonyl)-5H,6H,7H,8H-imidazo[1,2-a]pyrazin-2-yl]methoxy}pyridine] | 1000 nM | > 500 nM
10 | COc1ccc(COc2cnc3c(c2)CN(C(=O)c2ccc(-n4ccnc4)nc2)CC3)nc1 [Example 24, 6-[6-(1H-Imidazol-1-yl)pyridine-3-carbonyl]-3-[(5-methoxypyridin-2-yl)methoxy]-5,6,7,8-tetrahydro-1,6-naphthyridine] | 2.06 nM | < 100 nM
11 | C=CCOc1ccc(C(=O)N2CCc3ncc(OCc4ccc(OC)cn4)cc3C2)cn1 [Example 24.1] | 3.01 nM | < 100 nM
12 | COCCOc1ccc(C(=O)N2CCc3ncc(OCc4ccc(OC)cn4)cc3C2)cn1 [Example 24.2] | – | < 100 nM
13 | COc1ccc(COc2cnc3c(c2)CN(C(=O)c2ccc(OCCF)nc2)CC3)nc1 [Example 24.3] | 4.45 nM | < 100 nM
14 | COCCn1cc(C(=O)N2CCc3ncc(OCc4ccc(OC)cn4)cc3C2)ccc1=O [Example 24.4] | 43 nM | < 100 nM
15 | COc1ccc(COc2ccc3c(c2)CN(C(=O)c2ccc(OC)nc2)CCO3)nc1 [Example 25, 7-[(5-Methoxypyridin-2-yl)methoxy]-4-(6-methoxypyridine-3-carbonyl)-2,3,4,5-tetrahydro-1,4-benzoxazepine] | 153 nM | 100 to 500 nM
16 | COc1ccc(COc2ccc3c(n2)CN(C(=O)c2ccc(OC)nc2)CC3)nc1 [Example 26, 2-[(5-Methoxypyridin-2-yl)methoxy]-7-(6-methoxypyridine-3-carbonyl)-5,6,7,8-tetrahydro-1,7-naphthyridine] | 39.3 nM | < 100 nM
17 | COc1ccc(Cn2c3c(ccc2=O)CCN(C(=O)c2ccc(OC)nc2)C3)nc1 [Example 26.1] | – | > 500 nM
18 | COc1ccc(COc2cnc3c(c2)CN(c2ccc(OC)cn2)CC3)nc1 [Example 27, 6-(5-Methoxypyridin-2-yl)-3-[(5-methoxypyridin-2-yl)methoxy]-5,6,7,8-tetrahydro-1,6-naphthyridine] | 3.19 nM | < 100 nM

Row | Compound | EC50 [1] | EC50 [2]
19 | COc1ccc(COc2ccc3c(c2)CN(c2ccc(=O)n(C)n2)CC3)nc1 [Example 27.1] | 13.4 nM | < 100 nM
20 | COc1ccc(COc2ccc3c(c2)CN(c2ccn(C)c(=O)c2)CC3)nc1 [Example 27.2] | 260 nM | 100 to 500 nM
21 | COc1ccc(COc2ccc3c(c2)CN(C(=O)c2ccc(OC)nc2)CC3C)nc1 (stereo not shown) [Example 28] | – | < 100 nM
22 | COc1ccc(COc2ccc3c(c2)CN(c2cnn(C)c2)CC3)nc1 [Example 29, 7-[(5-Methoxypyridin-2-yl)methoxy]-2-(1-methyl-1H-pyrazol-4-yl)-1,2,3,4-tetrahydroisoquinoline] | 161 nM | 100 to 500 nM
23 | COc1ccc(COc2ccc3c(c2)CN(c2ccc(=O)n(C)c2)CC3)nc1 [Example 29.1] | 86 nM | < 100 nM
24 | COc1ccc(OCCn2cnc3c2CN(C(=O)c2ccc(OC)nc2)CC3)nc1 [Example 30, 2-Methoxy-5-(3-{2-[(5-methoxypyridin-2-yl)oxy]ethyl}-3H,4H,5H,6H,7H-imidazo[4,5-c]pyridine-5-carbonyl)pyridine] | 704 nM | > 500 nM
25 | COc1ccc(COc2ccc3c(c2)CN(C(=O)c2ccc(OC)nc2)C(C)C3)nc1 (stereo not shown) [Example 31, 7-[(5-Methoxypyridin-2-yl)methoxy]-2-(6-methoxypyridine-3-carbonyl)-3-methyl-1,2,3,4-tetrahydroisoquinoline] | 108 nM | 100 to 500 nM
26 | CC(=O)N1CCc2ccc(OCc3ccc(O)cn3)cc2C1 [Example 32, 1-{7-[(5-Hydroxypyridin-2-yl)methoxy]-1,2,3,4-tetrahydroisoquinolin-2-yl}ethan-1-one] | 191 nM | 100 to 500 nM
27 | COc1ccc(COc2ccc3c(c2)CN(C(=O)OCC(C)C)CC3)nc1 [Example 33, 2-Methylpropyl 7-[(5-methoxypyridin-2-yl)methoxy]-1,2,3,4-tetrahydroisoquinoline-2-carboxylate] | 36.5 nM | < 100 nM
28 | COc1ccc(COc2ccc3c(c2)CN(C(=O)c2ccc(OCCF)nc2)CC3)nc1 [Example 34, (6-(2-Fluoroethoxy)pyridin-3-yl)(7-((5-methoxypyridin-2-yl)methoxy)-3,4-dihydroisoquinolin-2(1H)-yl)methanone] | 2.48 nM | < 100 nM
29 | COc1ccc(COc2ccc3c(c2)CN(C(=O)c2ccc(=O)n(CCF)c2)CC3)nc1 [Example 34.1] | 5.12 nM | < 100 nM
30 | C=CCOc1ccc(COc2ccc3c(c2)CN(C(=O)c2ccc(OC)nc2)CC3)nc1 [Example 35, (7-((5-(Allyloxy)pyridin-2-yl)methoxy)-3,4-dihydroisoquinolin-2(1H)-yl)(6-methoxypyridin-3-yl)methanone] | 1.05 nM | < 100 nM
31 | COc1ccc(C(=O)N2CCc3ccc(OCc4ccc(O)cn4)cc3C2)cn1 [Example 35.1, (7-((5-Hydroxypyridin-2-yl)methoxy)-3,4-dihydroisoquinolin-2(1H)-yl)(6-methoxypyridin-3-yl)methanone] | 8.44 nM | < 100 nM
32 | COc1ccc(COc2ccc3c(c2)CN(C(=O)c2ccc(OCF)nc2)CC3)nc1 [Example 36, (6-(Fluoromethoxy)pyridin-3-yl)(7-((5-methoxypyridin-2-yl)methoxy)-3,4-dihydroisoquinolin-2(1H)-yl)methanone] | 1.96 nM | < 100 nM
33 | COc1ccc(C(=O)N2CCc3ccc(OCc4ccc(OCF)cn4)cc3C2)cn1 [Example 37, (7-((5-(Fluoromethoxy)pyridin-2-yl)methoxy)-3,4-dihydroisoquino-lin-2(1H)-yl)(6-methoxypyridin-3-yl)methanone] | 2.6 nM | < 100 nM
34 | COc1ccc(C(=O)N2CCc3ccc(OCc4ccc(OCCF)cn4)cc3C2)cn1 [Example 38, (7-((5-(2-Fluoroethoxy)pyridin-2-yl)methoxy)-3,4-dihydroisoquino-lin-2(1H)-yl)(6-methoxypyridin-3-yl)methanone] | 1.25 nM | < 100 nM
35 | COc1ccc(COc2ccc3c(c2)CN(C(=O)c2ccc(=O)[nH]c2)CC3)nc1 [Example 39, 5-(7-((5-Methoxypyridin-2-yl)methoxy)-1,2,3,4-tetrahydroisoquinoline-2-carbonyl)pyridin-2(1H)-one] | 12 nM | < 100 nM
